Laboratory results reported in ChEMBL document CHEMBL1137916, “5-Amidinoindoles as dual inhibitors of coagulation factors IXa and Xa” (Bioorg Med Chem Lett, 2004).

Legend:
Coagulation factor IX = Coagulation factor IX (Homo sapiens, UniProt P00740); test: Binding affinity towards human factor IXa
Coagulation factor X = Coagulation factor X (Homo sapiens, UniProt P00742); test: Binding affinity towards human factor Xa
Coagulation factor X, sequence (P00742 41-179 limits assumed): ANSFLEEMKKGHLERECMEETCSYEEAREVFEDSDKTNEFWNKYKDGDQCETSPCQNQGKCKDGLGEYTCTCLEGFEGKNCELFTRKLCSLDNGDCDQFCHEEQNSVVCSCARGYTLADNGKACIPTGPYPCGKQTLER
Coagulation factor X, sequence (P00742 235-488 limits assumed): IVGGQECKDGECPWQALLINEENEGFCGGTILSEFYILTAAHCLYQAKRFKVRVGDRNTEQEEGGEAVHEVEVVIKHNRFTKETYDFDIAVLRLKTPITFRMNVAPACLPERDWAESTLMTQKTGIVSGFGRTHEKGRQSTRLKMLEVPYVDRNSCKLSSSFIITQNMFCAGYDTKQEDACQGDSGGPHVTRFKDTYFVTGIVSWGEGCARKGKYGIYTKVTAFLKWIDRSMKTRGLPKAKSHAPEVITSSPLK

Coagulation factor IX, sequence (P00740 47-191 limits assumed): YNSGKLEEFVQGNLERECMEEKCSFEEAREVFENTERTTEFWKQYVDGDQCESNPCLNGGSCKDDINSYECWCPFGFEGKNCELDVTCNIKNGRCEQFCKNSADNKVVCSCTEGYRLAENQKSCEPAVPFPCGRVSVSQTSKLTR
Coagulation factor IX, sequence (P00740 227-461 limits assumed): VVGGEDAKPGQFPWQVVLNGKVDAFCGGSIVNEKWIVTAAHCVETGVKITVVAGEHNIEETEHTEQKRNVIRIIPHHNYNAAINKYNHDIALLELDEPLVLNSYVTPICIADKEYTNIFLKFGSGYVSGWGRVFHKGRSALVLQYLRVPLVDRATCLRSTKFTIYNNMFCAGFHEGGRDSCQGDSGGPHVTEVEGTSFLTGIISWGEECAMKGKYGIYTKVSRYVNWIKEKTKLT

Row | Compound | Ki (Coagulation factor IX) [nM] | Ki (Coagulation factor X) [nM]
1 | N=C(N)c1ccc2[nH]cc(CC(=O)Nc3ccc(-c4ccccc4S(N)(=O)=O)cc3)c2c1 | 6700 | 3.2
2 | CC(C(=O)Nc1ccc(-n2cnc3ccccc32)cc1)c1c[nH]c2ccc(C(=N)N)cc12 (stereo not given) | 480 | 3
3 | N=C(N)c1ccc2[nH]cc(C(Cc3ccccc3)C(=O)Nc3ccc(-n4cnc(-c5ccccc5)c4)cc3)c2c1 (stereo not given) | 270 | 79
4 | N=C(N)c1ccc2[nH]cc(C(Cc3ccccc3)C(=O)NCc3ccc(C(=O)Nc4nc5ccccc5[nH]4)cc3)c2c1 (stereo not given) | 930 | 810
5 | N=C(N)c1ccc2[nH]cc(C(Cc3ccccc3)C(=O)Nc3ccc(-c4ccccc4S(N)(=O)=O)cc3)c2c1 (stereo not given) | 660 | 0.63
6 | N=C(N)c1ccc2[nH]cc(CC(Cc3ccccc3)C(=O)Nc3ccc(-n4cnc5ccccc54)cc3)c2c1 (stereo not given) | 130 | 45
7 | CS(=O)(=O)c1ccc2nc(NC(=O)c3ccc(CNC(=O)C(Cc4ccccc4)c4c[nH]c5ccc(C(=N)N)cc45)cc3)[nH]c2c1 (stereo not given) | 660 | 1100
8 | N=C(N)c1ccc2[nH]cc(C(CC3CC3)C(=O)Nc3ccc(-n4cnc5ccccc54)cc3)c2c1 (stereo not given) | 3800 | 14
9 | N=C(N)c1ccc2[nH]cc(C(Cc3ccc(NC(=O)c4ccccc4)cc3)C(=O)Nc3ccc(-n4cnc5ccccc54)cc3)c2c1 (stereo not given) | 270 | 18
10 | CCC(C(=O)Nc1ccc(-n2cnc3ccccc32)cc1)c1c[nH]c2ccc(C(=N)N)cc12 (stereo not given) | 160 | 2.8
11 | CC(C)(C(=O)Nc1ccc(-n2cnc3ccccc32)cc1)c1c[nH]c2ccc(C(=N)N)cc12 | 750 | 2.2
12 | N=C(N)c1ccc2[nH]cc(C(Cc3ccc(NS(=O)(=O)c4ccccc4)cc3)C(=O)Nc3ccc(-n4cnc5ccccc54)cc3)c2c1 (stereo not given) | 130 | 19
13 | N=C(N)c1ccc2[nH]cc(C(Cc3ccccc3)C(=O)NCc3cccc(C(=O)Nc4nc5ccccc5[nH]4)c3)c2c1 (stereo not given) | 1900 | 2600

Now from value to compound:

Row | Ki (Coagulation factor IX) [nM] | Ki (Coagulation factor X) [nM] | Compound
14 | 250 | 36 | N=C(N)c1ccc2[nH]cc(C(CC(=O)Nc3ccc(-n4cnc5ccccc54)cc3)Cc3ccccc3)c2c1 (stereo not given)
15 | 310 | 72 | N=C(N)c1ccc2[nH]cc(C(Cc3ccccc3)C(=O)NCc3ccc(-n4cnc5ccccc54)cc3)c2c1 (stereo not given)
16 | 360 | 160 | Cn1cc(C(Cc2ccccc2)C(=O)Nc2ccc(-n3cnc4ccccc43)cc2F)c2cc(C(=N)N)ccc21 (stereo not given)
17 | 240 | 6.1 | N=C(N)c1ccc2[nH]cc(C(CCc3ccccc3)C(=O)Nc3ccc(-n4cnc5ccccc54)cc3F)c2c1 (stereo not given)
18 | 98 | 28 | N=C(N)c1ccc2[nH]cc(C(Cc3ccc4ccccc4c3)C(=O)Nc3ccc(-n4cnc5ccccc54)cc3F)c2c1 (stereo not given)
19 | 75 | 4 | N=C(N)c1ccc2[nH]cc(C(Cc3ccc(N)cc3)C(=O)Nc3ccc(-n4cnc5ccccc54)cc3)c2c1 (stereo not given)
20 | 820 | 26 | N=C(N)c1ccc2[nH]cc([C@H](Cc3ccccc3)C(=O)Nc3ccc(-n4cnc5ccccc54)cc3F)c2c1
21 | 19 | 1.3 | N=C(N)c1ccc2[nH]cc([C@@H](Cc3ccccc3)C(=O)Nc3ccc(-n4cnc5ccccc54)cc3F)c2c1
22 | 59 | 1.8 | N=C(N)c1ccc2[nH]cc(C(Cc3cccc(C(=O)O)c3)C(=O)Nc3ccc(-n4cnc5ccccc54)cc3F)c2c1 (stereo not given)
23 | 1200 | 7 | N=C(N)c1ccc2[nH]cc(C(Cc3cccnc3)C(=O)Nc3ccc(-n4cnc5ccccc54)cc3)c2c1 (stereo not given)
24 | 300 | 5.6 | N=C(N)c1ccc2ccn(C(Cc3ccccc3)C(=O)Nc3ccc(-n4cnc5ccccc54)cc3F)c2c1 (stereo not given)
25 | 63 | 2.5 | N=C(N)c1ccc2[nH]cc(C(Cc3ccccc3)C(=O)Nc3ccc(-n4cnc5ccccc54)cc3F)c2c1 (racemic)
